What was measured:
Format in all cases: functional
OVCAR-5 = test: cells; details: Homo sapiens
Description: Growth inhibition of human OVCAR5 cells assessed as drug level required for 50% reduction in net protein increase by SRB assay relative to control

HOP-62 = test: cells; details: Homo sapiens
Description: Growth inhibition of human HOP62 cells assessed as drug level required for 50% reduction in net protein increase by SRB assay relative to control

NCI-H522 [1] = test: cells; details: Homo sapiens
Description: Growth inhibition of human NCI-H522 cells assessed as cell growth at 10 uM by SRB assay

IGROV-1 [2] = test: cells; details: Homo sapiens
Description: Growth inhibition of human IGROV1 cells assessed as drug level required for 50% reduction in net protein increase by SRB assay relative to control

786-0 [3] = test: cells; details: Homo sapiens
Description: Growth inhibition of human 786-0 cells assessed as cell growth at 10 uM by SRB assay

EKVX = test: cells; details: Homo sapiens
Description: Growth inhibition of human EKVX cells assessed as drug level required for 50% reduction in net protein increase by SRB assay relative to control

SK-MEL-5 = test: cells; details: Homo sapiens
Description: Growth inhibition of human SK-MEL-5 cells assessed as drug level required for 50% reduction in net protein increase by SRB assay relative to control

cells [4] = details: Homo sapiens, Hs-578T; read-out: LC50 (the source's name)
Description: Cytotoxicity against human Hs 578T cells by SRB assay

SN12C = test: cells; details: Homo sapiens
Description: Growth inhibition of human SN12C cells assessed as drug level required for 50% reduction in net protein increase by SRB assay relative to control

M14 = test: cells; details: Homo sapiens
Description: Growth inhibition of human M14 cells assessed as drug level required for 50% reduction in net protein increase by SRB assay relative to control

OVCAR-8 [5] = test: cells; details: Homo sapiens
Description: Growth inhibition of human OVCAR8 cells assessed as cell growth at 10 uM by SRB assay

MDA-MB-468 = test: Cytotoxicity against human MDA-MB-468 cells by SRB assay; details: read-out: LC50 (the source's name)
NCI-H23 [6] = test: Cytotoxicity against human NCI-H23 cells by SRB assay; details: read-out: LC50 (the source's name)
U-251 = test: cells; details: Homo sapiens
Description: Growth inhibition of human U251 cells assessed as drug level required for 50% reduction in net protein increase by SRB assay relative to control

HOP-92 = test: cells; details: Homo sapiens
Description: Growth inhibition of human HOP92 cells assessed as cell growth at 10 uM by SRB assay

IGROV-1 [7] = test: Cytotoxicity against human IGROV1 cells by SRB assay; details: read-out: LC50 (the source's name)
SF-295 [8] = test: cells; details: Homo sapiens
Description: Growth inhibition of human SF295 cells assessed as cell growth at 10 uM by SRB assay

NCI-H23 [9] = test: cells; details: Homo sapiens
Description: Growth inhibition of human NCI-H23 cells assessed as cell growth at 10 uM by SRB assay

BT-549 = test: cells; details: Homo sapiens
Description: Growth inhibition of human BT549 cells assessed as drug level required for 50% reduction in net protein increase by SRB assay relative to control

T47D = test: cells; details: Homo sapiens
Description: Growth inhibition of human T47D cells assessed as cell growth at 10 uM by SRB assay

SNB-75 [10] = test: Cytotoxicity against human SNB75 cells by SRB assay; details: read-out: LC50 (the source's name)
PC-3 [11] = test: cells; details: Homo sapiens
Description: Growth inhibition of human PC3 cells assessed as drug level required for 50% reduction in net protein increase by SRB assay relative to control

TK-10 [12] = test: cells; details: Homo sapiens
Description: Growth inhibition of human TK10 cells assessed as drug level required for 50% reduction in net protein increase by SRB assay relative to control

Malme-3M = test: cells; details: Homo sapiens
Description: Growth inhibition of human MALME-3M cells assessed as drug level required for 50% reduction in net protein increase by SRB assay relative to control

NCI-H522 [13] = test: Cytotoxicity against human NCI-H522 cells by SRB assay; details: read-out: LC50 (the source's name)
PC-3 [14] = test: Cytotoxicity against human PC3 cells by SRB assay; details: read-out: LC50 (the source's name)
cells [15] = details: Homo sapiens, Hs-578T
Description: Growth inhibition of human Hs 578T cells assessed as drug level required for 50% reduction in net protein increase by SRB assay relative to control

A498 = test: cells; details: Homo sapiens
Description: Growth inhibition of human A498 cells assessed as cell growth at 10 uM by SRB assay

HCC 2998 = test: cells; details: Homo sapiens
Description: Growth inhibition of human HCC2998 cells assessed as cell growth at 10 uM by SRB assay

ACHN = test: cells; details: Homo sapiens
Description: Growth inhibition of human ACHN cells assessed as drug level required for 50% reduction in net protein increase by SRB assay relative to control

SR = test: cells; details: Homo sapiens
Description: Growth inhibition of human SR cells assessed as cell growth at 10 uM by SRB assay

MCF7 [16] = test: Cytotoxicity against human MCF7 cells by SRB assay; details: read-out: LC50 (the source's name)
SK-OV-3 = test: cells; details: Homo sapiens
Description: Growth inhibition of human SKOV3 cells assessed as drug level required for 50% reduction in net protein increase by SRB assay relative to control

OVCAR-8 [17] = test: cells; details: Homo sapiens; remark: listed apart in the source
Description: Growth inhibition of human OVCAR8 cells assessed as drug level required for 50% reduction in net protein increase by SRB assay relative to control

NCI-H522 [18] = test: cells; details: Homo sapiens; remark: listed apart in the source
Description: Growth inhibition of human NCI-H522 cells assessed as drug level required for 50% reduction in net protein increase by SRB assay relative to control

UACC-257 [19] = test: cells; details: Homo sapiens
Description: Growth inhibition of human UACC257 cells assessed as drug level required for 50% reduction in net protein increase by SRB assay relative to control

LOX IMVI [20] = test: cells; details: Homo sapiens
Description: Growth inhibition of human LOXIMVI cells assessed as cell growth at 10 uM by SRB assay

MDA-MB-435 [21] = test: cells; details: Homo sapiens
Description: Growth inhibition of human MDA-MB-435 cells assessed as drug level required for 50% reduction in net protein increase by SRB assay relative to control

SNB-75 [22] = test: cells; details: Homo sapiens
Description: Growth inhibition of human SNB75 cells assessed as drug level required for 50% reduction in net protein increase by SRB assay relative to control

SNB-75 [23] = test: cells; details: Homo sapiens; remark: listed apart in the source
Description: Growth inhibition of human SNB75 cells assessed as cell growth at 10 uM by SRB assay

TK-10 [24] = test: cells; details: Homo sapiens; remark: listed apart in the source
Description: Growth inhibition of human TK10 cells assessed as cell growth at 10 uM by SRB assay

K562 [25] = test: cells; details: Homo sapiens
Description: Growth inhibition of human K562 cells assessed as cell growth at 10 uM by SRB assay

SK-MEL-2 = test: Cytotoxicity against human SK-MEL-2 cells by SRB assay; details: read-out: LC50 (the source's name)
K562 [26] = test: cells; details: Homo sapiens; remark: listed apart in the source
Description: Growth inhibition of human K562 cells assessed as drug level required for 50% reduction in net protein increase by SRB assay relative to control

LOX IMVI [27] = test: cells; details: Homo sapiens; remark: listed apart in the source
Description: Growth inhibition of human LOXIMVI cells assessed as drug level required for 50% reduction in net protein increase by SRB assay relative to control

CCRF-CEM [28] = test: cells; details: Homo sapiens
Description: Growth inhibition of human CCRF-CEM cells assessed as cell growth at 10 uM by SRB assay

SK-MEL-28 [29] = test: Cytotoxicity against human SK-MEL-28 cells by SRB assay; details: read-out: LC50 (the source's name)
KM12 = test: Cytotoxicity against human KM12 cells by SRB assay; details: read-out: LC50 (the source's name)
HCT-15 = test: cells; details: Homo sapiens
Description: Growth inhibition of human HCT15 cells assessed as drug level required for 50% reduction in net protein increase by SRB assay relative to control

DU-145 = test: Cytotoxicity against human DU145 cells by SRB assay; details: read-out: LC50 (the source's name)
MOLT-4 [30] = test: cells; details: Homo sapiens
Description: Growth inhibition of human MOLT4 cells assessed as drug level required for 50% reduction in net protein increase by SRB assay relative to control

MDA-MB-231 = test: cells; details: Homo sapiens
Description: Growth inhibition of human MDA-MB-231 cells assessed as drug level required for 50% reduction in net protein increase by SRB assay relative to control

SNB-19 = test: cells; details: Homo sapiens
Description: Growth inhibition of human SNB19 cells assessed as cell growth at 10 uM by SRB assay

cells [31] = details: Homo sapiens, CAKI
Description: Growth inhibition of human CAKI cells assessed as cell growth at 10 uM by SRB assay

RXF 393 [32] = test: Cytotoxicity against human RFX393 cells by SRB assay; details: read-out: LC50 (the source's name)
786-0 [33] = test: cells; details: Homo sapiens, read-out: LC50 (the source's name)
Description: Cytotoxicity against human 786-0 cells by SRB assay

RXF 393 [34] = test: cells; details: Homo sapiens
Description: Growth inhibition of human RFX393 cells assessed as cell growth at 10 uM by SRB assay

MCF7 [35] = test: cells; details: Homo sapiens
Description: Growth inhibition of human MCF7 cells assessed as cell growth at 10 uM by SRB assay

MOLT-4 [36] = test: Cytotoxicity against human MOLT4 cells by SRB assay; details: read-out: LC50 (the source's name)
A549 = test: cells; details: Homo sapiens
Description: Growth inhibition of human A549 cells assessed as drug level required for 50% reduction in net protein increase by SRB assay relative to control

UACC-257 [37] = test: cells; details: Homo sapiens; remark: listed apart in the source
Description: Growth inhibition of human UACC257 cells assessed as cell growth at 10 uM by SRB assay

[38] = Cytotoxicity against human CAKI cells by SRB assay; details: read-out: LC50 (the source's name)
SF-295 [39] = test: Cytotoxicity against human SF295 cells by SRB assay; details: read-out: LC50 (the source's name)
NCI/ADR-RES = test: cells; details: Homo sapiens
Description: Growth inhibition of human NCI/ADR-RES cells assessed as cell growth at 10 uM by SRB assay

MCF7 [40] = test: cells; details: Homo sapiens; remark: listed apart in the source
Description: Growth inhibition of human MCF7 cells assessed as drug level required for 50% reduction in net protein increase by SRB assay relative to control

HT-29 = test: cells; details: Homo sapiens
Description: Growth inhibition of human HT-29 cells assessed as drug level required for 50% reduction in net protein increase by SRB assay relative to control

NCI-H460 = test: Cytotoxicity against human NCI-H460 cells by SRB assay; details: read-out: LC50 (the source's name)
MDA-MB-435 [41] = test: cells; details: Homo sapiens; remark: listed apart in the source
Description: Growth inhibition of human MDA-MB-435 cells assessed as cell growth at 10 uM by SRB assay

SK-MEL-28 [42] = test: cells; details: Homo sapiens
Description: Growth inhibition of human SK-MEL-28 cells assessed as drug level required for 50% reduction in net protein increase by SRB assay relative to control

CCRF-CEM [43] = test: cells; details: Homo sapiens; remark: listed apart in the source
Description: Growth inhibition of human CCRF-CEM cells assessed as drug level required for 50% reduction in net protein increase by SRB assay relative to control

NCI-H226 = test: cells; details: Homo sapiens
Description: Growth inhibition of human NCI-H226 cells assessed as cell growth at 10 uM by SRB assay

For `CCCCCCCCCCCCCCCCCCPCCCCCCCCCCCCCC.O=S(=O)(NS(=O)(=O)C(F)(F)F)C(F)(F)F` (stereo unspecified), the GI50 (OVCAR-5) was 318 nM, the GI50 (HOP-62) was 435 nM and the growth at 10 µM (NCI-H522 [1]) was -71.4%. For the same molecule, the GI50 (IGROV-1 [2]) was 71 nM, the growth at 10 µM (786-0 [3]) was -65.8% and the GI50 (EKVX) was 123 nM. The GI50 (SK-MEL-5) was 79 nM, the CC50 (cells [4]) was over 100000 nM and the GI50 (SN12C) was 42 nM. The GI50 (M14) was 52 nM, the growth at 10 µM (OVCAR-8 [5]) was -79.9% and the CC50 (MDA-MB-468) was 2560 nM. It also gave a CC50 (NCI-H23 [6]) of over 100000 nM, a GI50 (U-251) of 41 nM and a growth at 10 µM (HOP-92) of -67.1%. The CC50 (IGROV-1 [7]) was over 100000 nM, the growth at 10 µM (SF-295 [8]) was -68.4% and the growth at 10 µM (NCI-H23 [9]) was -39.3%. For the same molecule, the GI50 (BT-549) was 66 nM, the growth at 10 µM (T47D) was -14.8% and the CC50 (SNB-75 [10]) was over 100000 nM. For the same molecule, the GI50 (PC-3 [11]) was 45 nM, the GI50 (TK-10 [12]) was 341 nM and the GI50 (Malme-3M) was 29 nM. The CC50 (NCI-H522 [13]) was over 100000 nM, the CC50 (PC-3 [14]) was 5900 nM and the GI50 (cells [15]) was 53 nM. For the same molecule, the growth at 10 µM (A498) was -48.3%, the growth at 10 µM (HCC 2998) was -24.4% and the GI50 (ACHN) was 260 nM. It also gave a growth at 10 µM (SR) of 62.4%, a CC50 (MCF7 [16]) of over 100000 nM and a GI50 (SK-OV-3) of 2610 nM. The GI50 (OVCAR-8 [17]) was 86 nM, the GI50 (NCI-H522 [18]) was 105 nM and the GI50 (UACC-257 [19]) was 103 nM. It also gave a growth at 10 µM (LOX IMVI [20]) of -68.5%, a GI50 (MDA-MB-435 [21]) of 45 nM and a GI50 (SNB-75 [22]) of 76 nM. It also gave a growth at 10 µM (SNB-75 [23]) of -31.4%, a growth at 10 µM (TK-10 [24]) of -43.3% and a growth at 10 µM (K562 [25]) of 39%. The CC50 (SK-MEL-2) was over 100000 nM, the GI50 (K562 [26]) was 41 nM and the GI50 (LOX IMVI [27]) was 58 nM. The growth at 10 µM (CCRF-CEM [28]) was 26.4%, the CC50 (SK-MEL-28 [29]) was 6590 nM and the CC50 (KM12) was over 100000 nM. For the same molecule, the GI50 (HCT-15) was 291 nM, the CC50 (DU-145) was over 100000 nM and the GI50 (MOLT-4 [30]) was 69 nM. For the same molecule, the GI50 (MDA-MB-231) was 56 nM, the growth at 10 µM (SNB-19) was 8.99% and the growth at 10 µM (cells [31]) was 4.01%. It also gave a CC50 (RXF 393 [32]) of over 100000 nM, a CC50 (786-0 [33]) of over 100000 nM and a growth at 10 µM (RXF 393 [34]) of -97.7%. The growth at 10 µM (MCF7 [35]) was -51.8%, the CC50 (MOLT-4 [36]) was over 100000 nM and the GI50 (A549) was 292 nM. The growth at 10 µM (UACC-257 [37]) was -34.6%, the CC50 [38] was over 100000 nM and the CC50 (SF-295 [39]) was over 100000 nM. The growth at 10 µM (NCI/ADR-RES) was -10.5%, the GI50 (MCF7 [40]) was 144 nM and the GI50 (HT-29) was 53 nM. The CC50 (NCI-H460) was over 100000 nM, the growth at 10 µM (MDA-MB-435 [41]) was -81% and the GI50 (SK-MEL-28 [42]) was 207 nM. It also gave a GI50 (CCRF-CEM [43]) of 26 nM and a growth at 10 µM (NCI-H226) of -1.45%.

From ChEMBL document CHEMBL1153480, “Study on the potential anti-cancer activity of phosphonium and ammonium-based ionic liquids” (2009)
